Values quoted from earlier work as cited in patent US6439069B1, “Method and apparatus for detecting subterranean termites” (priority 1999, dated 2002).

Legend:
[1] = tested on: foraging termites; conditions: food sources impregnated with 0.5% of the substance
[2] = tested on: subterranean termites; conditions: for 20-30 years or more

| SMILES | palatability of impregnated food source [1] | control of subterranean termites [2] [%] |
| --- | --- | --- |
| O.O.O.O.O=BOB1OB(OB=O)OB2OB([O-])OB([O-])OB(O1)O2.[Na+].[Na+] [disodium octaborate tetrahydrate] | acceptably palatable |  |
| ClC1=C(Cl)C2(Cl)C3C(Cl)C(Cl)CC3C1(Cl)C2(Cl)Cl (stereo not drawn) [chlordane] |  | 100 |
| ClC1=C(Cl)C2(Cl)C3C(Cl)C=CC3C1(Cl)C2(Cl)Cl (stereo not drawn) [heptachlor] |  | 100 |
